Converted amounts (≈) assume the structure as drawn. Read-outs that look alike come from different tables or passages of the source.
How the values were obtained:
human CB1R = target: T1, human CB1R (Homo sapiens, UniProt P21554); assay: CB1R mediated modulation of cAMP synthesis; format: cell-based; conditions: CHO cells expressing human CB1R, forskolin-stimulated cAMP
T1 construct: host or cells: CHO cells
Description: Compounds of the invention are evaluated for their CB1 agonist or inverse agonistic activity in accordance with the following experimental method.
(§1) CHO cells expressing human CB1R (Euroscreen) are plated at a density of 5000 cells per well in 384 well plates and incubated overnight at 37° C. After removing the media, the cells are treated with test compounds diluted in stimulation buffer containing 1 mM IBMX, 0.25% BSA and 10 uM Forskolin. The assay is incubated for 30 minutes at 37° C. Cells are lysed and the cAMP concentration is measured using DiscoverX—XS cAMP kit, following the manufacturer's protocol. In this setting, agonists will decrease forskolin induced production of cAMP while inverse agonists will further increase forskolin induced production of cAMP. EC50 of agonists are calculated as follows. The maximal amount of cAMP produced by forskolin compared to the level of cAMP inhibited by 1 uM CP55940 is defined as 100%. The EC50 value of each test compound is determined as the concentration at which 50% of the forskolin-stimulated cAMP synthesis is inhibited. Data is analyzed using a four-parameter logistic model. (Model 205 of XLfit 4.0).

human CB2R = target: T2, human CB2R (Homo sapiens, UniProt P34972); assay: CB2R mediated modulation of cAMP synthesis; format: cell-based
T2 construct: host or cells: CHO cells
Description: Compounds of the invention are evaluated for their CB2 agonist or inverse agonistic activity in accordance with the following experimental method.
as §1, with “CB2R” for “CB1R”

[1] = Human microsomal stability assay; format: in vitro ADME; conditions: human liver microsomes 1 mg protein/ml, 1 uM compound, pH 7.4
Description: The double time point high throughput screen for human liver microsomal metabolic stability is used to measure the in vitro metabolism of test compounds by human liver microsomal enzymes. The data collected are analyzed to calculate a half-life (t½, min) and clearance (expressed as percent hepatic blood flow, % QH) for test compounds. The assay is performed in 50 mM potassium phosphate buffer, pH 7.4 and 2.5 mM NADPH. Test samples are dissolved in DMSO and acetonitrile for a final assay concentration of 1 uM. Human liver microsomes are diluted in assay buffer to a final assay concentration of 1 mg protein/ml. Compound solution and microsome suspension are added to assay buffer for a final incubation volume of 350 ul. The preparation is incubated for 5 min in a 37° C. water bath. The reaction is started by the addition of NADPH. Volumes of 80 ul are removed from the incubation mix at 0, 5, and 30 min after the start of the reaction and added to 160 ul acetonitrile. The supernatant is transferred to 0.25 mm glass fiber filter plates and centrifuged for 5 min at 3000 rpm. Injection volumes of 10 ul are typically added to HPLC columns with formic acid in water or acetonitrile at a flow rate of 0.3 ml/min. Percent loss of parent compound is calculated from the area under each time point to determine the half-life and clearance. Preferred compounds of the invention will have a human liver microsomal stability of <25% QH.

[2] = Aqueous (equilibrium) solubility assay; format: physicochemical; conditions: aqueous buffer, thermodynamic from solid, 48 hrs equilibrium
Description: The equilibrium solubility of compounds is determined in pH 2, 4.5, 6.8 buffers. Prior to solubility measurement, the crystalline/amorphous characteristics of the sample are determined by observing the powder form under polarized light microscope. Solubility is only measured when compound is crystalline.
Approximately 2 mg of compound are weighed out into a vial and 1-2 ml of buffer are added into the vial (pHs 2 & 4.5, use 1 ml and for pHs 6.8 and 7.4 use 2 ml of buffer). The vial is rotated for 48 hrs protected from light. After 48 hrs, the sample is transferred into an eppendorf tube and centrifuged for 10 minutes at 14,000 RPM, if the supernatant is not clear, it is filtered (PVDF filter). The clear supernatant is diluted if necessary, before analyzing via HPLC. The final pH of the supernatant or the filtrate is measured and reported. The external calibration curve is used to determine the solubility value. The percentage of extraneous peaks relative to the parent peak is monitored in the standard solution as well as the solubility sample. Preferred compounds of the invention will have a solubility of >100 μg/ml.

[3] = test system: Salmonella bacterial strains TA98 and TA100; assay: Ames mutagenicity assay: bacteria reverse mutation screening assay; format: cell-based; conditions: TA98 and TA100, presence or absence of S9
Description: The Ames ^(1) Salmonella bacterial strains used in the abbreviated screening assay ^(2) are TA98 and TA100. Actively growing (log phase) bacteria are incubated with test compound and trace amounts of histidine in the presence or absence of S9 for 48 hours on minimal agar plates. Test compound is dissolved in DMSO to a final concentration of 100 mg/ml. The stock is serially diluted to yield concentrations of 100, 50, 25 12.5 and 6.3 mg/ml. Fifty microliters of dosing solution is combined with top agar and buffer (or S9 mix) and poured on duplicate plates to yield effective doses of 5000, 2500, 1250, 625 and 313 μg/plate. Positive and negative controls plates are included. Formation of colonies after 48 hr incubation at 37° C. is an indication of genetic reversion, either arising spontaneously or caused by the test compound. The average number of spontaneous colonies growing on control plates is compared to the number of colonies on test plates. A fold increase of 2-3× over background is generally considered a positive response for mutagenicity. • 1. Maron, D. M. and Ames, B. N. (1983). “Revised Methods for the Salmonella Mutagenicity Test”. Mutat. Res. 113, 173-215. • 2. D. A. Burke, D. J. Wedd, and B. Burlinson (1996). “Use of the Miniscreen assay to screen novel compounds for bacterial mutagenicity in the pharmaceutical industry”. Mutagenesis 11: 201-205.

[4] = pH 4.5 buffer, read-out: solubility at pH 4.5
[5] = pH 6.8 buffer, read-out: solubility at pH 6.8
[6] = Table XI, read-out: CB1 CAMP EC50
[7] = Table XI, CHO cells expressing human CB2R, forskolin-stimulated cAMP, read-out: CB2 CAMP EC50

T1 sequence (P21554 whole entry): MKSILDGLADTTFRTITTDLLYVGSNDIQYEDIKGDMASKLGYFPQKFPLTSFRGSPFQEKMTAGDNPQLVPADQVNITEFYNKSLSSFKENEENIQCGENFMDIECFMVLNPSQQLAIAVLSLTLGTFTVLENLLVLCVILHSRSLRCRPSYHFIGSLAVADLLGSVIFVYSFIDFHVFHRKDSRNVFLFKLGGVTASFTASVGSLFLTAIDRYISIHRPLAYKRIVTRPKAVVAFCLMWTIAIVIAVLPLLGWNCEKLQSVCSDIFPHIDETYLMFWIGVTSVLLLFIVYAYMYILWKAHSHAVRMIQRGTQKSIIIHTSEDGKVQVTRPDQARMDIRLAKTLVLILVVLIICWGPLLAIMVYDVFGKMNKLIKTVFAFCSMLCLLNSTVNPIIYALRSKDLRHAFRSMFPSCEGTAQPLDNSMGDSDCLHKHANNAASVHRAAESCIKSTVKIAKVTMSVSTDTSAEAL
T2 sequence (P34972 whole entry): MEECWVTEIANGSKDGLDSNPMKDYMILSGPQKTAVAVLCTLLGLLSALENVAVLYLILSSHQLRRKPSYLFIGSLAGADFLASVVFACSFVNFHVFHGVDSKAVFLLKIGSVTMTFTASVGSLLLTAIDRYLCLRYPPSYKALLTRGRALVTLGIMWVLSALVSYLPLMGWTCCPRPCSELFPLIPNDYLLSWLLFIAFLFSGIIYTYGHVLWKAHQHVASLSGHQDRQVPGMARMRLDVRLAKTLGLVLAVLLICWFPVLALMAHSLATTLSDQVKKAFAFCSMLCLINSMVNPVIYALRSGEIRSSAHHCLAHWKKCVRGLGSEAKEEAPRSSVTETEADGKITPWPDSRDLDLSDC

## CO[C@H]1CC[C@@H](S(=O)(=O)C(C)(C)C(=O)Nc2nnn(C(C)(C)C)n2)CC1
Human CB1R; CB1 EC50, Table II
  EC50: > 50000 nM
Human CB2R
  EC50: 56 nM

## CC(C)(C)n1nnc(NC(=O)C(C)(C)S(=O)(=O)[C@H]2CC[C@@H](O)CC2)n1
Human CB1R; CB1 EC50, Table II
  EC50: > 50000 nM
Human CB2R
  EC50: 8.7 nM

## CC(C)(C)n1nnc(NC(=O)C(C)(C)S(=O)(=O)CC[C@@H]2CCOC2)n1
Human CB1R; CB1 EC50, Table II
  EC50: ~50000 nM
Human CB2R
  EC50: 12 nM

## CCC(C)S(=O)(=O)C(C)(C)C(=O)Nc1cc(C(C)(C)C)on1 (stereo not shown) [Example 42 WO08039645]
[1]
  HLM clearance (percent hepatic blood flow): 68 QH %
[2]; [4]
  solubility at 48 h: 20 µg/mL (≈ 60.5 µM)
Human CB1R; CB1 CAMP EC50, Table XI
  EC50: > 20000 nM
[3]
  Ames: negative
Human CB2R
  EC50: 19 nM

## CCC(C)S(=O)(=O)C(C)(C)C(=O)Nc1cc(C(C)(C)C)nn1C (stereo not shown) [Example 43 WO08039645]
[1]
  HLM clearance (percent hepatic blood flow): 61 QH %
[2]; [4]
  solubility at 48 h: 1260 µg/mL (≈ 3680 µM)
[2]; [5]
  solubility at 48 h: 1160 µg/mL (≈ 3370 µM)
Human CB1R; [6]
  EC50: > 20000 nM
[3]
  Ames: positive
Human CB2R; [7]
  EC50: 642 nM

## CCC(C)S(=O)(=O)C(C)(C)C(=O)Nc1nc(C(C)(C)C)cs1 (stereo not shown) [Example 44 WO08039645]
[1]
  HLM clearance (percent hepatic blood flow): 67 QH %
[2]; [4]
  solubility at 48 h: 13 µg/mL (≈ 37.5 µM)
Human CB1R; CB1 CAMP EC50, Table XI
  EC50: 10700 nM
[3]
  Ames: negative
Human CB2R
  EC50: 14 nM

## CC(C)(C)c1cc(NC(=O)C(C)(C)S(=O)(=O)CC2CCOCC2)no1 [Example 56 WO08039645]
[1]
  HLM clearance (percent hepatic blood flow): 47 QH %
[2]; [4]
  solubility at 48 h: 47 µg/mL (≈ 126 µM)
[2]; [5]
  solubility at 48 h: 44 µg/mL (≈ 118 µM)
Human CB1R; CB1 CAMP EC50, Table XI
  EC50: > 20000 nM
[3]
  Ames: negative
Human CB2R
  EC50: 4.5 nM

## CC(C)(C)c1csc(NC(=O)C(C)(C)S(=O)(=O)CC2CCOCC2)n1 [Example 57 WO08039645]
[1]
  HLM clearance (percent hepatic blood flow): 87 QH %
[2]; [4]
  solubility at 48 h: 383 µg/mL (≈ 986 µM)
[2]; [5]
  solubility at 48 h: 406 µg/mL (≈ 1040 µM)
Human CB1R; CB1 CAMP EC50, Table XI
  EC50: 2400 nM
[3]
  Ames: negative
Human CB2R
  EC50: 23 nM

## Cn1nc(C(C)(C)C)cc1NC(=O)C(C)(C)S(=O)(=O)CC1CCOCC1 [Example 59 WO08039645]
[1]
  HLM clearance (percent hepatic blood flow): <30.10 QH %
[2]; [4]
  solubility at 48 h: 396 µg/mL (≈ 1030 µM)
[2]; [5]
  solubility at 48 h: 452 µg/mL (≈ 1170 µM)
Human CB1R; [6]
  EC50: > 20000 nM
[3]
  Ames: positive
Human CB2R; [7]
  EC50: 140 nM

## CC(C)(C)c1cc(NC(=O)C(C)(C)S(=O)(=O)C2CCOCC2)no1 [Example 66 WO08039645]
[1]
  HLM clearance (percent hepatic blood flow): 57 QH %
[2]; [4]
  solubility at 48 h: 56 µg/mL (≈ 156 µM)
[2]; [5]
  solubility at 48 h: 53 µg/mL (≈ 148 µM)
Human CB1R; CB1 CAMP EC50, Table XI
  EC50: > 50000 nM
[3]
  Ames: negative
Human CB2R
  EC50: 0.72 nM

## CC(C)(C)c1csc(NC(=O)C(C)(C)S(=O)(=O)C2CCOCC2)n1 [Example 67 WO08039645]
[1]
  HLM clearance (percent hepatic blood flow): 79 QH %
[2]; [4]
  solubility at 48 h: 15 µg/mL (≈ 40.1 µM)
[2]; [5]
  solubility at 48 h: 16 µg/mL (≈ 42.7 µM)
Human CB1R; CB1 CAMP EC50, Table XI
  EC50: 11400 nM
[3]
  Ames: negative
Human CB2R
  EC50: 12 nM

## Cn1nc(C(C)(C)C)cc1NC(=O)C(C)(C)S(=O)(=O)C1CCOCC1 [Example 69 WO08039645]
[1]
  HLM clearance (percent hepatic blood flow): <30.10 QH %
[2]; [4]
  solubility at 48 h: 1040 µg/mL (≈ 2810 µM)
[2]; [5]
  solubility at 48 h: 1230 µg/mL (≈ 3320 µM)
Human CB1R; [6]
  EC50: > 20000 nM
[3]
  Ames: positive
Human CB2R; [7]
  EC50: 216 nM

## CC(C)(C)c1cc(NC(=O)C(C)(C)S(=O)(=O)c2ccc(F)cc2)no1 [Example 130 WO08014199]
[1]
  HLM clearance (percent hepatic blood flow): 68 QH %
[2]; [4]
  solubility at 48 h: 5.2 µg/mL (≈ 14.1 µM)
[2]; [5]
  solubility at 48 h: 4.7 µg/mL (≈ 12.8 µM)
Human CB1R; CB1 CAMP EC50, Table XI
  EC50: 2240 nM
[3]
  Ames: negative
Human CB2R
  EC50: 2.4 nM

## CC(C)(C)c1cc(NC(=O)C(C)(C)S(=O)(=O)c2ccc(F)cc2)on1 [Example 248 WO08014199]
[1]
  HLM clearance (percent hepatic blood flow): 32 QH %
[2]; [4]
  solubility at 48 h: 1.68 µg/mL (≈ 4.56 µM)
[2]; [5]
  solubility at 48 h: 1.25 µg/mL (≈ 3.39 µM)
Human CB1R; CB1 CAMP EC50, Table XI
  EC50: 3290 nM
[3]
  Ames: negative
Human CB2R
  EC50: 0.98 nM

## Cn1nc(C(C)(C)C)cc1NC(=O)C(C)(C)S(=O)(=O)c1ccc(F)cc1 [Example 251 WO08014199]
[1]
  HLM clearance (percent hepatic blood flow): 30 QH %
[2]; [4]
  solubility at 48 h: 137 µg/mL (≈ 359 µM)
[2]; [5]
  solubility at 48 h: 148 µg/mL (≈ 388 µM)
Human CB1R; CB1 CAMP EC50, Table XI
  EC50: 10900 nM
[3]
  Ames: positive
Human CB2R
  EC50: 2.57 nM

## CC(C)(C)c1csc(NC(=O)C(C)(C)S(=O)(=O)c2ccc(F)cc2)n1 [Example 252 WO08014199]
[1]
  HLM clearance (percent hepatic blood flow): 85 QH %
[2]; [4]
  solubility at 48 h: 1.74 µg/mL (≈ 4.53 µM)
[2]; [5]
  solubility at 48 h: 1.62 µg/mL (≈ 4.21 µM)
Human CB1R; CB1 CAMP EC50, Table XI
  EC50: 934 nM
[3]
  Ames: negative
Human CB2R
  EC50: 0.401 nM
